These results are taken from ChEMBL document CHEMBL6083256, “Design, synthesis and biological evaluation of novel oxazole derivatives as potential hypoglycemic agents” (Bioorg Med Chem, 2024).

The structures appear in SMILES notation. Some results are limits rather than exact numbers.

Series [1] concerns HepG2. Description: Induction of glucose consumption in starved human HepG2 cells assessed as fold increase in activity at 20 uM incubated for 24 hrs relative to control. Format: functional.
In series [2] the test system is 3T3-L1. Description: Cytotoxicity against mouse 3T3-L1 cells at 100 uM incubated for 72 hrs by CCK8 assay. As to conditions: 3t3-l1, 72 h; call rule not given here. Format: toxicity, cell-based. In general terms: Formazan colour is commonly taken as a measure of viable cells.
Series [3] has as its system HepG2. Description: Cytotoxicity against human HepG2 cells at 100 uM incubated for 72 hrs by CCK8 assay. Format: toxicity, cell-based. As to conditions: hepg2, 72 h.
A further series relates to Mus musculus. Description: Hypoglycemic activity in overnight-fasted C57BL/6J mouse assessed as reduction in blood glucose level at 80 mg/kg, ip pretreated for 30 mins followed by glucose administration measured upto 120 mins by OGTT analysis. Type of series: functional, organism-based. The conditions noted are these: time 150.0 min.
The test system of series [4] is HepG2. The series can be described thus: Induction of glucose consumption in starved human HepG2 cells incubated for 24 hrs. Format: functional, cell-based. As to conditions: dose 1-25 µM.
Series [5] deals with 3T3-L1. The series can be described thus: Induction of glucose consumption in starved mouse 3T3-L1 cells incubated for 24 hrs. Type of series: functional, cell-based. The conditions noted are these: dose 1-25 µM.
A short description of series [6]: Cytotoxicity against human HepG2 cells incubated for 72 hrs by CCK8 assay. Type of series: toxicity, cell-based.
Series [7] relates to 3T3-L1. The series can be described thus: Cytotoxicity against mouse 3T3-L1 cells assessed as change in cell morphology at 3.125 to 100 uM incubated for 72 hrs. Format: toxicity, cell-based. The conditions noted are these: 3t3-l1, 72 h, dose 3.125-100 µM.
For series [8], the system named is 3T3-L1. Description: Cytotoxicity against mouse 3T3-L1 cells at 25 uM incubated for 72 hrs by CCK8 assay. The conditions noted are these: 3t3-l1, 72 h. Format: toxicity, cell-based.
Series [9] in a line: Cytotoxicity against mouse 3T3-L1 cells incubated for 72 hrs by CCK8 assay. Format: toxicity, cell-based.
For series [10], the system named is HepG2. The series can be described thus: Cytotoxicity against human HepG2 cells assessed as change in cell morphology at 3.125 to 100 uM incubated for 72 hrs. Type of series: toxicity, cell-based. The conditions noted are these: hepg2, 72 h, dose 3.125-100 µM.
For series [11], the system named is HepG2. Description: Cytotoxicity against human HepG2 cells at 25 uM incubated for 72 hrs by CCK8 assay. Type of series: toxicity, cell-based. As to conditions: hepg2, 72 h.
In series [12] the test system is HepG2. The series can be described thus: Induction of glucose consumption in starved human HepG2 cells assessed as fold increase in activity at 2 mM incubated for 24 hrs relative to control. Type of series: functional.
Another series deals with CYP2D6 (Homo sapiens, UniProt P10635). Description: Inhibition of CYP2D6 in human liver microsomes at 10 uM relative to control. Type of series: ADME, Microsome.
CYP2D6, sequence (P10635 whole entry): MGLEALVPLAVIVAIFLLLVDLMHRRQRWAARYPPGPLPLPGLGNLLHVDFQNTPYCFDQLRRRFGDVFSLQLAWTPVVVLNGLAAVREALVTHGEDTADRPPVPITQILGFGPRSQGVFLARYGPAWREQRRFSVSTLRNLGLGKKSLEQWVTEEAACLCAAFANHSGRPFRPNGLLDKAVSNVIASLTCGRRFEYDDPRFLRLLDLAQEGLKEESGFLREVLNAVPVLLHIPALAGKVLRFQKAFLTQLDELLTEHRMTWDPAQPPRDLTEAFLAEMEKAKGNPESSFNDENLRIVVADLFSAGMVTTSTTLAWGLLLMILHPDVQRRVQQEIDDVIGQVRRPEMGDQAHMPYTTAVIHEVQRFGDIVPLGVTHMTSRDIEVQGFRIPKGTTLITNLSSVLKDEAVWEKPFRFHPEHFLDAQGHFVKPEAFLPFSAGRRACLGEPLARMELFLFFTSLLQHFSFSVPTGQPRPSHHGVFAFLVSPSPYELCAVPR
The next series addresses CYP2C19 (Homo sapiens, UniProt P33261). Description: Inhibition of CYP2C19 in human liver microsomes at 10 uM relative to control. Format: ADME, Microsome. In general terms: Liver microsomes are vesicles of endoplasmic reticulum, rich in cytochrome P450 enzymes.
The next series addresses T1, CYP1A2 (Homo sapiens, UniProt P05177).
T1 sequence (P05177 whole entry): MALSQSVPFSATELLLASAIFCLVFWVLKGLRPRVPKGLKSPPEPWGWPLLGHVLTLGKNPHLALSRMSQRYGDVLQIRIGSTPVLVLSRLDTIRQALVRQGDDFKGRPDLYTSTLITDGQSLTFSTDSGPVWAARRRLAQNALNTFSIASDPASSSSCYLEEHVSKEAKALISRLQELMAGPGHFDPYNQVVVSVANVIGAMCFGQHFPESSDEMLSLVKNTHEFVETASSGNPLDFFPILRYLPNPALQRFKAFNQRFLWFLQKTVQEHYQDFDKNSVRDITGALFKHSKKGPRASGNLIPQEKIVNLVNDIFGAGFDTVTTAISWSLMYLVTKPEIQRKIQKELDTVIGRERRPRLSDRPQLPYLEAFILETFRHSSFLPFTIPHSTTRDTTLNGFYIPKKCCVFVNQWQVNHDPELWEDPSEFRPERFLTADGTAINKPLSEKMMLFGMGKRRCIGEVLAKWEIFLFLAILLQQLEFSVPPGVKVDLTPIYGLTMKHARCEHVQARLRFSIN
Description: Inhibition of CYP1A2 in human liver microsomes at 10 uM relative to control. Format: ADME, Microsome.

A further series has as its target CYP3A4 (Homo sapiens, UniProt P08684). Description: Inhibition of CYP3A4 in human liver microsomes at 10 uM relative to control. Format: ADME, Microsome.
For the next series, the target named is CYP2C9 (Homo sapiens, UniProt P11712). Description: Inhibition of CYP2C9 in human liver microsomes at 10 uM relative to control. Type of series: ADME, Microsome.
CYP2C9, sequence (P11712 whole entry): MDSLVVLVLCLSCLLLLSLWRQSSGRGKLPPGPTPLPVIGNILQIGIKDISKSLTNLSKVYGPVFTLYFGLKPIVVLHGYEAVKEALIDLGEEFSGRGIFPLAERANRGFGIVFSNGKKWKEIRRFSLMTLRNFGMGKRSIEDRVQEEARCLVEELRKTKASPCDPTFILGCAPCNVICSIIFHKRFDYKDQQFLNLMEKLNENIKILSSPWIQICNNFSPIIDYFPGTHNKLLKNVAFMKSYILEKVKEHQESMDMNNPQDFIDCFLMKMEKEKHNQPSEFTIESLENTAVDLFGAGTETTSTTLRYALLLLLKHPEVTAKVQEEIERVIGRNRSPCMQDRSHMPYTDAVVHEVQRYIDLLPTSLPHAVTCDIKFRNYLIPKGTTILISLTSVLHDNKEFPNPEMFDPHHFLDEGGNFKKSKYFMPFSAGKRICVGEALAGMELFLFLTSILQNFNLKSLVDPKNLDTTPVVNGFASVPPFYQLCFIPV
In series [13] the target is AMP-activated protein kinase, AMPK (Homo sapiens) (UniProt P54646+O43741+P54619+Q9UGJ0+Q9Y478+Q13131+Q9UGI9). Description: Induction of AMPK phosphorylation at Thr172 in human HepG2 cells incubated for 24 hrs by Western blot analysis. Format: cell-based. The conditions noted are these: filed as activator. A general note: In western blotting, separated proteins are transferred to a membrane and probed.

CYP3A4, sequence (P08684 whole entry): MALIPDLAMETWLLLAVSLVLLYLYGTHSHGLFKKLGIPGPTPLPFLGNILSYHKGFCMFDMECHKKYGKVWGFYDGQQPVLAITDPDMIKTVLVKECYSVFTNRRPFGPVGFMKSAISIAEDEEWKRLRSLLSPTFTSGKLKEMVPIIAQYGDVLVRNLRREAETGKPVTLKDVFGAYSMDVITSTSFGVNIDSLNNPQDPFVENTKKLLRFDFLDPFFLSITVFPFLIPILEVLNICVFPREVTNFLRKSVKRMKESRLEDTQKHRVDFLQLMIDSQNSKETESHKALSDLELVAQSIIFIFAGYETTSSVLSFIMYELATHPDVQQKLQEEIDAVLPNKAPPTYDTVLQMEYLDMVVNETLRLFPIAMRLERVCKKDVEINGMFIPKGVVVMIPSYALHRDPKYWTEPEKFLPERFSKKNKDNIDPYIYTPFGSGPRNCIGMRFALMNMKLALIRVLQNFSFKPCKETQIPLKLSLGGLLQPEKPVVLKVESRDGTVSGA
CYP2C19, sequence (P33261 whole entry): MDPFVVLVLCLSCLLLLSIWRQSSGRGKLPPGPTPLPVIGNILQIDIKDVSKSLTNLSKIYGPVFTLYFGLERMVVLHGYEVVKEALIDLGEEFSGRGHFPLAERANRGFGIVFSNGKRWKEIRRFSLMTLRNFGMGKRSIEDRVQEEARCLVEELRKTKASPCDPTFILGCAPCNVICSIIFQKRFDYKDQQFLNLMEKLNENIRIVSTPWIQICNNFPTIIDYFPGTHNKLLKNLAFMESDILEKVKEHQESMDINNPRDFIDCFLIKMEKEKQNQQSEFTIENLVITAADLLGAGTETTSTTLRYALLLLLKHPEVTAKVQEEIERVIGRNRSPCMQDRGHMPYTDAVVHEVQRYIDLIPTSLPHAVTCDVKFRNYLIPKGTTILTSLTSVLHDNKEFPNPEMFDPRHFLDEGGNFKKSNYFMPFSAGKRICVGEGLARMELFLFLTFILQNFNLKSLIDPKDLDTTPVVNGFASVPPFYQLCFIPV

On to `OCC1CCN(Cc2coc(-c3cccc(Cl)c3)n2)CC1`, for which the “fold change (FC)” value in the series with HepG2 [1] came out at 1.05.
On the same count and under the same terms, then `CCOC1CCN(Cc2coc(-c3ccc(C(F)(F)F)cc3)n2)CC1`, with 1.42; and `OCC1CCCN(Cc2coc(-c3ccc(C(F)(F)F)cc3)n2)C1` (configuration not stated), with 1.42.
`NC1CCN(Cc2coc(-c3ccc(C(F)(F)F)cc3)n2)CC1`: the Activity result is “Toxic” in the series with 3T3-L1 [2]; “Toxic” in the series with HepG2 [3]; “Not active; Exhibited Minimal Activity” in the series on Mus musculus; “Dose-dependent-effect” with HepG2 [4]; “Dose-dependent-effect” in the series with 3T3-L1 [5]. For the same molecule, the “fold change (FC)” value in the series with HepG2 [1] is recorded as 1.6.
With `Cc1ccc(-c2nc(CN3CCC(CO)CC3)co2)cc1`, the “fold change (FC)” value with HepG2 [1] was 1.39.
Regarding `OCC1CCN(Cc2coc(-c3cccc(C(F)(F)F)c3)n2)CC1`, the “fold change (FC)” value in the series on HepG2 [1] came out at 1.4.
The IC50 is the concentration that gives 50% inhibition. In the case of `CS(=O)(=O)N1CCN(Cc2coc(-c3ccc(C(F)(F)F)cc3)n2)CC1`, the half-inhibitory concentration (IC50) at 72 h in [6] and in [9] was more than 100 µM each time. For the same molecule, the “fold change (FC)” value with HepG2 [1] stood at 1.63. In addition, the Activity entry is “Non-toxic” with 3T3-L1 [7]; “Non-toxic” with 3T3-L1 [8]; “Not active; Exhibited Minimal Activity” in the series on Mus musculus; “Dose-dependent-effect” in the series on HepG2 [4]; “Non-toxic” with HepG2 [10]; “Dose-dependent-effect” in the series on 3T3-L1 [5]. Besides, the Activity entry in the series with HepG2 [11] was “Non-toxic”.
On to `CN1CCN(Cc2coc(-c3ccc(C(F)(F)F)cc3)n2)CC1`, for which the “fold change (FC)” value with HepG2 [1] was found to be 1.5.
As to `COCC1CCN(Cc2coc(-c3ccc(C(F)(F)F)cc3)n2)CC1`, the “fold change (FC)” value with HepG2 [1] worked out at 1.2.
Turning to `OCC1CCN(Cc2coc(-c3cc(F)cc(F)c3)n2)CC1`, in the series with HepG2 [1], the “fold change (FC)” value is listed as 0.95.
The same measure, in the same setting: then `Cc1cccc(-c2nc(CN3CCC(CO)CC3)co2)c1`, with 1.25; and `COc1cccc(-c2nc(CN3CCC(CO)CC3)co2)c1`, with 1.27.
For the molecule `CN(C)C(=N)NC(=N)N` [METFORMIN], the “fold change (FC)” value in the series on HepG2 [12] is reported as 1.57.
Regarding `OCC1CCN(Cc2coc(-c3cccc(F)c3)n2)CC1`, in the series on HepG2 [1], the “fold change (FC)” value amounted to 1.12.
With `CC(=O)N1CCN(Cc2coc(-c3ccc(C(F)(F)F)cc3)n2)CC1`, in the series on HepG2 [1], the “fold change (FC)” value is 1.21.
On to `CC(C)(C)OC(=O)N1CCN(Cc2coc(-c3ccc(C(F)(F)F)cc3)n2)CC1`, for which, in the series on HepG2 [1], the “fold change (FC)” value is reported as 1.46.
With `OCC1CCN(Cc2coc(-c3ccccc3)n2)CC1`, the “fold change (FC)” value in the series on HepG2 [1] was determined as 1.36.
As for `COC1CCCN(Cc2coc(-c3ccc(C(F)(F)F)cc3)n2)C1` (configuration not stated), the “fold change (FC)” value in the series with HepG2 [1] was 1.05.
On the same count and under the same terms, then `OCC1CCN(Cc2coc(-c3ccc(C(F)(F)F)cc3)n2)CC1`, with 1.43; and `CCOC(=O)C1CCN(Cc2coc(-c3ccc(C(F)(F)F)cc3)n2)CC1`, with 1.34.
The same measure, in the same setting: then `OCC1CCN(Cc2coc(-c3ccc(F)cc3)n2)CC1`, with 1.27.
For the molecule `COC1CCN(Cc2coc(-c3ccc(C(F)(F)F)cc3)n2)CC1`, the half-inhibitory concentration (IC50) at 72 h in series [6] and in series [9] was more than 100 µM throughout. The “fold change (FC)” value in the series with HepG2 [1] is listed as 1.61. The Activity entry was “Non-toxic” in the series on 3T3-L1 [7]; “Non-toxic” with 3T3-L1 [8]; “Not active; Exhibited Weak Activity” in the series on Mus musculus; “Dose-dependent-effect” in the series on HepG2 [4]; “Non-toxic” in the series with HepG2 [10]; “Dose-dependent-effect” in the series on 3T3-L1 [5]. Further, the Activity result in the series with HepG2 [11] is listed as “Non-toxic”.
With `OC1CCN(Cc2coc(-c3ccc(C(F)(F)F)cc3)n2)CC1`, in the series with HepG2 [1], the “fold change (FC)” value was determined as 1.42.
In the case of `COc1ccc(-c2nc(CN3CCC(CO)CC3)co2)cc1`, the “fold change (FC)” value in the series with HepG2 [1] is 1.05.
The same measure, in the same setting: then `OC1CCCN(Cc2coc(-c3ccc(C(F)(F)F)cc3)n2)C1` (configuration not stated), with 1.49.
For `FC(F)(F)c1ccc(-c2nc(CN3CCOCC3)co2)cc1`, the “fold change (FC)” value with HepG2 [1] was found to be 1.52.
Take `CS(=O)(=O)C1CCN(Cc2coc(-c3ccc(C(F)(F)F)cc3)n2)CC1`: the “fold change (FC)” value with HepG2 [1] was determined as 1.39.
A word on the inhibition: it is the percentage by which the read-out fell short of the control. Consider `COC(=O)C1CCN(Cc2coc(-c3ccc(C(F)(F)F)cc3)n2)CC1`, for which the IC50 at 72 h in series [6] and in series [9] was more than 100 µM each time. In addition, the inhibition at 10 µM is 4.6% on CYP2D6; 21.7% against CYP2C19; 16.2% against CYP1A2; 2.1% against CYP3A4; 5.8% against CYP2C9. Further, the “fold change (FC)” value in the series with HepG2 [1] was 1.6. Further, the Activity entry in the series on 3T3-L1 [7] is “Non-toxic”; in the series with 3T3-L1 [8], “Non-toxic”; in the series on Mus musculus it was “Active; Exhibited Strongest Activity Than Other Tested Compounds”; in the series with HepG2 [4] it was “Dose-dependent-effect”; in [13], “Dose-dependent-effect”; in the series with HepG2 [10] it was “Non-toxic”. Further, the Activity result in the series on 3T3-L1 [5] was “Dose-dependent-effect”; in the series on HepG2 [11], “Non-toxic”.
For `OCC1CCN(Cc2coc(-c3ccc(Cl)cc3)n2)CC1`, the “fold change (FC)” value in the series with HepG2 [1] is recorded as 1.24.
